According to patent US20230398146A1, “IMMUNE MODULATION OF MYELOID DERIVED SUPPRESSIVE CELL FUNCTION FOR CANCER TREATMENT” (SURGE Therapeutics, Inc., priority 2020, published 2023):

Test system: 4T1-Luc2 cells
Experiment: Survival of mice after resection of orthotopic 4T1-Luc2 breast tumors, composition administered at the tumor resection site
Type: in vivo, mouse
Protocol: In some embodiments, an animal model of cancer can be used to identify and/or characterize composition comprising a polymeric biomaterial and a modulator of myeloid-derived suppressive cells. For example, a tumor resection is performed on a tumor-bearing mouse, and a composition described herein, e.g., composition comprising a polymeric biomaterial and a modulator of myeloid-derived suppressive cells is administered to the tumor resection site. The survival of treated subjects is then monitored. In some embodiments, a composition comprising a polymeric biomaterial and a modulator of myeloid-derived suppressive cells is considered and/or determined to be useful in accordance with the present disclosure when it is characterized, in that when tested in vivo as described in the present Example, it extends survival of a treated subject, e.g., by at least 1 week, at least 2 weeks, at least 3 weeks, at least 4 weeks, at least 2 months, at least 3 months, at least 4 months, at least 5 months, at least 6 months, or longer, as compared to that observed in a control reference (e.g., a control in which a composition comprising a polymeric biomaterial and a modulator of myeloid-derived suppressive cells is not administered. For example, in some embodiments, a control reference may be administration of a polymeric biomaterial in the absence of a modulator of myeloid-derived suppressive cell function. In some embodiments, a control reference may be administration of a modulator of myeloid-derived suppressive cell function in solution. Alternatively, in some embodiments, a provided composition comprising a biomaterial preparation and a modulator of myeloid-derived suppressive cells is considered and/or determined to be useful for treatment of cancer (including, e.g., prevention or reduction in the likelihood of tumor relapse or metastasis) in accordance with the present disclosure when such a composition, after administration at a tumor resection site, reduces incidence of tumor recurrence and/or metastasis after the tumor resection (e.g., at least 1 month after tumor resection when the test subject is a mouse subject, or at least 3 months after tumor resection when the test subject is a human subject), for example, by at least 10% or more (comprising, e.g., at least 20%, at least 30%, at least 40%, at least 50%, at least 60%, at least 70%, at least 80%, at least 90%, or more) as compared to that observed in a control reference (e.g., as described above).
In some embodiments, female BALB/cJ mice are inoculated orthotopically with 100,000 breast cancer cells (e.g., 4T1-Luc2 cells). Ten days later, tumors are surgically resected, and either (i) a composition described herein, e.g., a composition comprising a polymeric biomaterial and a modulator of myeloid-derived suppressive cells, (ii) a composition comprising a polymeric biomaterial without a modulator of myeloid-derived suppressive cells, and/or (iii) a negative control composition (e.g., a buffered solution without such a composition) is administered into the resection cavity. Animal survival can be monitored to inspect for induction of antitumor immunity. In some embodiments, to confirm that a composition comprising a polymeric biomaterial and a modulator of myeloid-derived suppressive cells functions mechanistically, for example, by modulating recruitment and/or survival and/or proliferation of myeloid-derived suppressive cells (e.g., neutrophils), animal survival may be monitored following inhibition of recruitment and/or survival and/or proliferation of myeloid-derived suppressive cells (e.g., neutrophils). In some embodiments, to confirm that an administered composition comprising a polymeric biomaterial and a modulator of myeloid-derived suppressive cells functions mechanistically by modulating myeloid-derived suppressive cell effector function, animal survival may be monitored following modulating myeloid-derived suppressive cell effector function (e.g., as described herein). […]

[1] = 10% w/w poloxamer 407 + 3% w/w 187 kDa HA with agent, 1.25 mg/mouse, at tumor resection site (day 10), vs same biomaterial without agent and vs 15% w/w poloxamer 407

Cc1c(C#N)cccc1-c1cc(-c2cn(Cc3cccc(C(C)(C)O)n3)nn2)nc(N)n1 [AB928, etrumadenant]
survival of tumor resection mice [1]: survived over a longer period of time

O=C(c1ccccc1)c1ccc2n1CCC2C(=O)O (stereo not shown) [Ketorolac]
survival of tumor resection mice (FIG. 2A: 10% w/w poloxamer 407 + 3% w/w 187 kDa HA with agent, 6 mg/mouse, at tumor resection site, vs same biomaterial without agent and vs 15% w/w poloxamer 407): survived over a longer period of time
survival of tumor resection mice (FIG. 2B: 10% w/w poloxamer 407 + 3% w/w 187 kDa HA with agent, 9 mg/mouse, at tumor resection site, vs same biomaterial without agent and vs 15% w/w poloxamer 407): survived over a longer period of time
survival of tumor resection mice (FIG. 3: 9% w/w poloxamer 407 + 2.2% w/w 766 kDa HA with agent, 1.2 mg/mouse, at tumor resection site, vs same biomaterial without agent): survived over a longer period of time

c1cc(CN2CCCNCCNCCCNCC2)ccc1CN1CCCNCCNCCCNCC1 [Plerixafor]
survival of tumor resection mice [1]: survived over a longer period of time

CC/C=C\C[C@H](O)[C@H](O)/C=C/C=C/C=C\C=C\[C@@H](O)C/C=C\CCC(=O)O [Resolvin D2]
survival of tumor resection mice (FIG. 4: 10% w/w poloxamer 407 + 3% w/w 187 kDa HA with agent, 2.5 μg/mouse, at tumor resection site, vs same biomaterial without agent and vs 15% w/w poloxamer 407): survived over a longer period of time

CCCCC(=O)N(Cc1ccc(-c2ccccc2-c2nnn[nH]2)cc1)[C@H](C(=O)O)C(C)C [Valsartan]
survival of tumor resection mice (FIG. 7: 11% w/w poloxamer 407 + 1.8% w/w 766 kDa HA with agent, 1 mg/mouse, at tumor resection site, vs same biomaterial without agent): survived over a longer period of time
